In patent US20220009920A1 (GB005, Inc., priority 2020, published 2022):

Columns and labels:
Assay in all cases: Large panel kinase profiling
Type in all cases: biochemical
Settings in all cases: 1 μM test article, 1 mM ATP
BUB1 = BUB1 (Homo sapiens, UniProt O43683)
In short: (§1)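 Fluorescence intensity (Ex 360 nm, Em 485 nm) was monitored continuously, once per minute, in PhosphoSens CSox-Sensor kinase reactions held at 30° C. Compound was present at 1 μM and ATP at 1 mM.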

CLK2 = biological target: T1, CLK2 (Homo sapiens, UniProt P49760)
T1 construct: AssayQuant Technologies, Inc. (service laboratory)
T1 sequence (P49760 whole entry, species assumed): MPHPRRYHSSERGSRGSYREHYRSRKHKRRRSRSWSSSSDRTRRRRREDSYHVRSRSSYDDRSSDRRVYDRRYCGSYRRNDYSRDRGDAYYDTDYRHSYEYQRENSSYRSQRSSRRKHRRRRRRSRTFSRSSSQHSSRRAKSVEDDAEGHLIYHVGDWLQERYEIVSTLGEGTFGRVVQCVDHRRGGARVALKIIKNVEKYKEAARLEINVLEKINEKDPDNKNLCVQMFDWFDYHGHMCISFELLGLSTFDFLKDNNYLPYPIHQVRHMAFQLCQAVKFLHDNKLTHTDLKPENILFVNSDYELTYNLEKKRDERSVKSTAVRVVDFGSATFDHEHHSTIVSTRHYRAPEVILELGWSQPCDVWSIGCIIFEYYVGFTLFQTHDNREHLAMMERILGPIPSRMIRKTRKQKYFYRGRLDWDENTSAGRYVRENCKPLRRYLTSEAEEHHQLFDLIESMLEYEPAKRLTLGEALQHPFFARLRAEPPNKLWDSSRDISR
In short: as §1

DYRK1B = biological target: T2, DYRK1B (Homo sapiens, UniProt Q9Y463)
T2 construct: AssayQuant Technologies, Inc. (service laboratory)
T2 sequence (Q9Y463 whole entry, species assumed): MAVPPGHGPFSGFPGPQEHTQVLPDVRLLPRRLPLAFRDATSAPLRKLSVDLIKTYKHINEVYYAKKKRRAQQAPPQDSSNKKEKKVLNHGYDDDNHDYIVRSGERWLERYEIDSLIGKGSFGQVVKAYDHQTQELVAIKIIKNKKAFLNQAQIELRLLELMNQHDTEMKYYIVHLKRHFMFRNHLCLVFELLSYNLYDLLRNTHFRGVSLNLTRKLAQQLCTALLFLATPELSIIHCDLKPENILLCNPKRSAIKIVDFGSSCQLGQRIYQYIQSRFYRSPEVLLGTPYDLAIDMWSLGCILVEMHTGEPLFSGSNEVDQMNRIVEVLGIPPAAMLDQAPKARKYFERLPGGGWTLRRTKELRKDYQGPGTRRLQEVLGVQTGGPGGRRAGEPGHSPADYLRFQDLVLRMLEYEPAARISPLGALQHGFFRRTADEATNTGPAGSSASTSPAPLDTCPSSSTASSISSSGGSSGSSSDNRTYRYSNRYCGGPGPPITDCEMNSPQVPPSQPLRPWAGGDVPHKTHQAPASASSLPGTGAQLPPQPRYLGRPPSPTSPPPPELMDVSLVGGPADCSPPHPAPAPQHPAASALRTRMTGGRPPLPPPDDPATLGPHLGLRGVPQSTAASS
In short: as §1

FER = FER (Homo sapiens, UniProt P16591)
FER, sequence (P16591 whole entry, species assumed): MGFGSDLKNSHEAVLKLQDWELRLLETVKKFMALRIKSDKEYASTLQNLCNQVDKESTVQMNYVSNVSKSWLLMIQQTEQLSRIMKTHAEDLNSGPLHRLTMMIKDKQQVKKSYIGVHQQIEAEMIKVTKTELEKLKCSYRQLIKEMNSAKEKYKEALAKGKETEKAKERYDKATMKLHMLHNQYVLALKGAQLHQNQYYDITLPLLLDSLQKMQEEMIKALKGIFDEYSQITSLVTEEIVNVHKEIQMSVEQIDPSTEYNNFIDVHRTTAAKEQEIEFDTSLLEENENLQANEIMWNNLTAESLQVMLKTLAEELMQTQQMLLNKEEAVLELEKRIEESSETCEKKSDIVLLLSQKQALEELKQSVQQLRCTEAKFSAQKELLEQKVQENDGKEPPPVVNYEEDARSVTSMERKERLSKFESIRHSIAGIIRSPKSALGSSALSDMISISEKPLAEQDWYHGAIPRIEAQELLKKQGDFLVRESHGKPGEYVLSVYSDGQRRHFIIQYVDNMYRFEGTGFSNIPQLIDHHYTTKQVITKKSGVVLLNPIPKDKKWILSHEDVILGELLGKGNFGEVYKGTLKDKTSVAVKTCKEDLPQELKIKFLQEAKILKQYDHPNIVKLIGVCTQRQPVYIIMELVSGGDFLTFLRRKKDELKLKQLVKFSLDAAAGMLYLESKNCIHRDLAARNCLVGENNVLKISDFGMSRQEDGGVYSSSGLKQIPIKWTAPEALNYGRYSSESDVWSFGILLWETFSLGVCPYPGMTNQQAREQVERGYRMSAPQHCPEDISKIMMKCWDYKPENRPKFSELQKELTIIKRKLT
In short: as §1

HIPK2 = biological target: T3, HIPK2 (Homo sapiens, UniProt Q9H2X6)
T3 construct: AssayQuant Technologies, Inc. (service provider)
T3 sequence (Q9H2X6 whole entry, species assumed): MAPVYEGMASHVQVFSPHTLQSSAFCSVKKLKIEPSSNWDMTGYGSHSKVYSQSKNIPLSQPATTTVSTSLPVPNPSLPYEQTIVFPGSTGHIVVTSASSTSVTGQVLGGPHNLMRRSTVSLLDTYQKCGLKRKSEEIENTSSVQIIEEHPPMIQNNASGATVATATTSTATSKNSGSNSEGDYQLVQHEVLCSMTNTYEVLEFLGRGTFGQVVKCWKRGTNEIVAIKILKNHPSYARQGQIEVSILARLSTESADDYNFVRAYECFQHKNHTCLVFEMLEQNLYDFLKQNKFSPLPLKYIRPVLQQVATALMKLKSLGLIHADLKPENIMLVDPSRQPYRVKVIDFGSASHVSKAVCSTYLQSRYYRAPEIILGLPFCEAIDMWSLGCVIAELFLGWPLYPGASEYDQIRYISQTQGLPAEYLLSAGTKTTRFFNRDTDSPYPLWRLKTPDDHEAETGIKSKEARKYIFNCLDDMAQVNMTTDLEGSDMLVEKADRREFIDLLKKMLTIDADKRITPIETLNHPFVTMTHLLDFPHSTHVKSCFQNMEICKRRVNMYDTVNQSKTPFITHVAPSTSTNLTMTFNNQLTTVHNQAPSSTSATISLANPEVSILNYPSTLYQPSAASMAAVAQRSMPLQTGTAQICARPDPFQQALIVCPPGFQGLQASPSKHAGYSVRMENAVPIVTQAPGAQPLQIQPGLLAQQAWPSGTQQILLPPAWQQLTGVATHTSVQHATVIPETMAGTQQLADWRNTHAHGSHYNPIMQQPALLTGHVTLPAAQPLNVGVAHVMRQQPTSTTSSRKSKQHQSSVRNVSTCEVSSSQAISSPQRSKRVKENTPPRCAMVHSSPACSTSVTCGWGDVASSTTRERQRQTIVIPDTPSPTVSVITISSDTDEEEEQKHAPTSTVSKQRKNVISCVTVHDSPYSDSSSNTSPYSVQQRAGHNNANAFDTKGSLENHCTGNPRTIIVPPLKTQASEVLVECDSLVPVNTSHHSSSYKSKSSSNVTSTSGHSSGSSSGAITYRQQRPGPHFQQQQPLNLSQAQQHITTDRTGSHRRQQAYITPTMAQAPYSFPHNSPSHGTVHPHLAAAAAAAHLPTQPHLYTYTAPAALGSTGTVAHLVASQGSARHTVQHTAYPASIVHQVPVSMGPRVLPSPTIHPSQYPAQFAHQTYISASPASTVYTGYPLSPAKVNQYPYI
In short: as §1

JAK3(JH1) = biological target: T4, JAK3(JH1) (Homo sapiens, UniProt P52333)
T4 construct: JAK3(JH1)
T4 sequence (P52333 822-1111 limits assumed, species assumed): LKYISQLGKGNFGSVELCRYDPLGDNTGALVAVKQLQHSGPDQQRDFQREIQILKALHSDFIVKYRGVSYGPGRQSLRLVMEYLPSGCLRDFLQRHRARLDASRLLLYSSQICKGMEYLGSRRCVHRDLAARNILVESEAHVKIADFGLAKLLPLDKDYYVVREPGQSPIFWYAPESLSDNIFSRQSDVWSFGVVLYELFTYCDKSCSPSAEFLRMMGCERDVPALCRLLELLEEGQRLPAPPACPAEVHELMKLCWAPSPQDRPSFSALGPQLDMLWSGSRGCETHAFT
In short: as §1

LTK = LTK (Homo sapiens, UniProt P29376)
In short: as §1

MAPK12/P38G = biological target: T5, MAPK12/P38G (Homo sapiens, UniProt P53778)
T5 construct: AssayQuant Technologies, Inc. (service provider)
T5 sequence (P53778 1-367): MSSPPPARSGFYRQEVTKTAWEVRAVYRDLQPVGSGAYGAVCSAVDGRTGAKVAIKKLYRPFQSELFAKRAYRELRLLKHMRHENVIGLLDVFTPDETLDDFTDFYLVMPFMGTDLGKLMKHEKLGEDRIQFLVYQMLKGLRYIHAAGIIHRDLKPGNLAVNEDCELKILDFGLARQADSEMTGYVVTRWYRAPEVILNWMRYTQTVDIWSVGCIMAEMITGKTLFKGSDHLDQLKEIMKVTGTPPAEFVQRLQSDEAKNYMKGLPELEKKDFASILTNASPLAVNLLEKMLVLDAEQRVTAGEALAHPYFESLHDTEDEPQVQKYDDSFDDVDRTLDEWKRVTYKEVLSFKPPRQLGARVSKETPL
In short: as §1

MASTL = biological target: T6, MASTL (Homo sapiens, UniProt Q96GX5)
T6 construct: AssayQuant Technologies, Inc. (assay service)
T6 sequence (Q96GX5 1-879): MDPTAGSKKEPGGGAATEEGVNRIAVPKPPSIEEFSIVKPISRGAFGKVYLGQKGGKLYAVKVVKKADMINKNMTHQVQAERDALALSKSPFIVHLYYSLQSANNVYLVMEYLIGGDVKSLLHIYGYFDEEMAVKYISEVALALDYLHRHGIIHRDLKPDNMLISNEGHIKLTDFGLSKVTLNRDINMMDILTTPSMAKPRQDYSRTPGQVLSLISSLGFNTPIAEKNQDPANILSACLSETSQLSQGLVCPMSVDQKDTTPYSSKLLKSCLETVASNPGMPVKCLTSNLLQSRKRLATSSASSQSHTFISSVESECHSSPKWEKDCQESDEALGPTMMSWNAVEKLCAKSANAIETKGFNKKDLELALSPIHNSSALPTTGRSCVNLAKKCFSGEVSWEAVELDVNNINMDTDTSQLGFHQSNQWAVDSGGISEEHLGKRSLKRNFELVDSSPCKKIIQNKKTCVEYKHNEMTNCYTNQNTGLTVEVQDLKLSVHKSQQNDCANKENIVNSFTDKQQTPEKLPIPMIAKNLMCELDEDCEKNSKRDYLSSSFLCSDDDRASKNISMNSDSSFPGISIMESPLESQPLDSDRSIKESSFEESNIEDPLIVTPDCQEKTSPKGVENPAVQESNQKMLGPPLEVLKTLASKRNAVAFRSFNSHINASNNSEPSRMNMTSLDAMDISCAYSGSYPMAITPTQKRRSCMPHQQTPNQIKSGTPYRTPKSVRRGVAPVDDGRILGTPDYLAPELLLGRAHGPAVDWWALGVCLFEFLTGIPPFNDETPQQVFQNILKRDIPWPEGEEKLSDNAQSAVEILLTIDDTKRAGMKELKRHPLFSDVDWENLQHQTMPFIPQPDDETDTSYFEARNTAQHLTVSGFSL
In short: as §1

NEK7 = biological target: T7, NEK7 (Homo sapiens, UniProt Q8TDX7)
T7 construct: AssayQuant Technologies, Inc. (assay service)
T7 sequence (Q8TDX7 whole entry, species assumed): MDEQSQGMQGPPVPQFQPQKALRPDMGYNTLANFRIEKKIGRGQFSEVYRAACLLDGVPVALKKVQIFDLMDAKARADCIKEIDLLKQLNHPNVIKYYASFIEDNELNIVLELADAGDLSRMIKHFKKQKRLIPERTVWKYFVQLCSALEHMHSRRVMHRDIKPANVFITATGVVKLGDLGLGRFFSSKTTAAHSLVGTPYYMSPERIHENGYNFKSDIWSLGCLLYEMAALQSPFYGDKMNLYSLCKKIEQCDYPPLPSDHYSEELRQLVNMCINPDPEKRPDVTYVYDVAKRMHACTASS
In short: as §1

NTRK1/TRKA = biological target: T8, NTRK1/TRKA (Homo sapiens, UniProt P04629)
T8 construct: AssayQuant Technologies, Inc. (assay service)
In short: as §1

STK3/MST2 = biological target: T9, STK3/MST2 (Homo sapiens, UniProt Q13188)
T9 construct: AssayQuant Technologies, Inc. (contract assay)
T9 sequence (Q13188 1-491): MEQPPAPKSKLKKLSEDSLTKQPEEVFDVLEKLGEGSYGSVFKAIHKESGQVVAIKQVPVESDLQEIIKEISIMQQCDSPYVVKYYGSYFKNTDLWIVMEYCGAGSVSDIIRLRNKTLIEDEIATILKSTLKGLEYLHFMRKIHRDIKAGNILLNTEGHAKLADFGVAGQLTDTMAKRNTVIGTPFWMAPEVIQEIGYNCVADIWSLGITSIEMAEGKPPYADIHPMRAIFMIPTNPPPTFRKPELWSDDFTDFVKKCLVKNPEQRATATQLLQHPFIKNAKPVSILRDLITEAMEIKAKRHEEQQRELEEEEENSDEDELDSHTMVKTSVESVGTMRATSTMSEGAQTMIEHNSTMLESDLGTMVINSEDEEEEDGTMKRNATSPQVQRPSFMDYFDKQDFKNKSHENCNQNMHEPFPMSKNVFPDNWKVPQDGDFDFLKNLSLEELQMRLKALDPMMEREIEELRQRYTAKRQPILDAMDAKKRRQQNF
In short: as §1

BUB1, sequence (O43683 whole entry): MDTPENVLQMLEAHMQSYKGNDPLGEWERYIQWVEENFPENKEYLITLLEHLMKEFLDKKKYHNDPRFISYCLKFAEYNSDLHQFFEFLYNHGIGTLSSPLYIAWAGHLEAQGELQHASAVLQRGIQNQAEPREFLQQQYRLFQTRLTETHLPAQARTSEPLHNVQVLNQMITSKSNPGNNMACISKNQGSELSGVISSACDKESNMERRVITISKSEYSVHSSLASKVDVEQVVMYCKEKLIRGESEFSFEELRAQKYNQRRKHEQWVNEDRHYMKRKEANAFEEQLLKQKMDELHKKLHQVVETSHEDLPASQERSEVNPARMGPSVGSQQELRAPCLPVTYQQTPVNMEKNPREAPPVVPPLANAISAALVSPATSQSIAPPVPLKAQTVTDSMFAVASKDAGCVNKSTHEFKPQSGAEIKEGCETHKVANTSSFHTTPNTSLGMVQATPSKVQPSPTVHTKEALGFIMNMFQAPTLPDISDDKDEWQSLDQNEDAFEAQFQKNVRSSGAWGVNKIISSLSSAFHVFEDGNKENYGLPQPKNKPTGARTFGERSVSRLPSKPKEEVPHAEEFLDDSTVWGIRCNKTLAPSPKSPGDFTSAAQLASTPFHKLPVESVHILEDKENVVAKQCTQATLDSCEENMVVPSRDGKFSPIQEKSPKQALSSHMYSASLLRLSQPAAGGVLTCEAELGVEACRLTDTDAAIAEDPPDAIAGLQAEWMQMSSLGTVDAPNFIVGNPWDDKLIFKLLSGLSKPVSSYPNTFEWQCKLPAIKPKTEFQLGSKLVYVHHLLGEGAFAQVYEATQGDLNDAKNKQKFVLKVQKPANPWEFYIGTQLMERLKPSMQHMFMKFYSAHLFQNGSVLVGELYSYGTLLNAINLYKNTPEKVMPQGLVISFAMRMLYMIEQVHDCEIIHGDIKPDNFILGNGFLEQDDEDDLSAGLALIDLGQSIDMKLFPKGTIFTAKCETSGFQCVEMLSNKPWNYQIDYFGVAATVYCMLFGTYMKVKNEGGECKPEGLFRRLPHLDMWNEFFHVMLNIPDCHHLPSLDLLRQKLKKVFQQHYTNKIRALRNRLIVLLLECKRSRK

Compound	inhibition at 1 µM (BUB1)	inhibition at 1 µM (CLK2)	inhibition at 1 µM (DYRK1B)	inhibition at 1 µM (FER)	inhibition at 1 µM (HIPK2)	inhibition at 1 µM (JAK3(JH1))	inhibition at 1 µM (LTK)	inhibition at 1 µM (MAPK12/P38G)	inhibition at 1 µM (MASTL)	inhibition at 1 µM (NEK7)	inhibition at 1 µM (NTRK1/TRKA)	inhibition at 1 µM (STK3/MST2)
C=CC(=O)N1CCCC(c2c(F)cc(C(N)=O)c3[nH]c4c(c23)CCCCC4)C1 (single isomer, unassigned) [Compound 5-6]	8.2%	0.7%	16.1%	32%	-18.6%	2%	0.6%	-1.9%	2.2%	14.6%	-5%	-13.7%
C=CC(=O)N1CCC[C@@H](c2c(F)cc(C(N)=O)c3[nH]c4c(c23)CC2(CC4)CC2)C1 [Compound 6-2, (S)-5-(1-acryloylpiperidin-3-yl)-6-fluoro-1,2,4,9-tetrahydrospiro[carbazole-3,1′-cyclopropane]-8-carboxamide]	-11.5%	-4.6%	-0.2%	2.1%	-55.4%	12.5%	18.3%	31.3%	-9%	13.8%	19.6%	-25.3%
C=CC(=O)N1CCC[C@@H](c2c(F)cc(C(N)=O)c3[nH]c4c(c23)CCC4)C1 [Compound 10-2, (S)-8-(1-acryloylpiperidin-3-yl)-7-fluoro-1,2,3,4-tetrahydrocyclo-penta[b]indole-5-carboxamide]	-2.3%	-3.2%	6.6%	29.3%	-66.1%	2.4%	24.4%	4.2%	-10.2%	-22.6%	21.6%	-14.4%
